RP-LC retention time data for 59 compounds are collected here from the METLIN SMRT retention time set (Domingo-Almenara et al. 2019).

The structures appear in SMILES notation.

The nature of this series: gradient 5% acetonitrile 3 min, to 50% in 2 min, to 85% in 15 min, held 3 min, 100 µL/min. The note with it: column: Zorbax Extend-C18 2.1 x 50 mm; eluents: water / acetonitrile, 0.1% formic acid. The gist of the method:
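Retention times come from adduct peaks that were picked computationally and then checked by hand. The standards, pure and pooled in mixtures of ~100 molecules, were run on a Zorbax Extend-C18 column (2.1 × 50 mm, 1.8 μm) at 100 μL/min with water and acetonitrile, each with 0.1% formic acid. Detection was by quadrupole time-of-flight mass spectrometry in positive and negative ionization mode, with a dead volume of 40 μL and a dwell volume of 900 μL.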
Consider `COc1ccc(CCS(=O)(=O)NCC2CCN(C(=O)c3cccn(C)c3=O)CC2)cc1`, for which the RP-LC retention time was 638 s.
The result for `NC(=O)c1nccn1Cc1ccccc1` reads 645 s; that for `O=C1CCCC2=C1C(c1ccccc1Cl)C1=C(CCCC1=O)O2`, 812 s; that for `COc1cc(OC)c(NC(=O)Cn2nc3n(c2=O)CCCCC3)cc1Cl`, 722 s.
`CCn1cc(-c2nc(C(=O)Nc3cc(F)ccc3Cl)cs2)c2cccnc21` showed an RP-LC retention time of 1330 s.
Turning to `COc1ccc2[nH]c3c(c2c1)CCNC31CCN(S(=O)(=O)c2c(C)nn(C)c2C)CC1`, the RP-LC retention time was determined as 641 s.
For the compound `O=C(Cn1c(=O)c2cc(-c3cccs3)nn2c2ncccc21)NCc1ccccc1`, the RP-LC retention time is 830 s.
Take `CCc1ccc(S(=O)(=O)N2CC(F)(F)C[C@H]2c2nnc(C)o2)cc1`: the RP-LC retention time stood at 858 s.
With `c1cnc(N2CCN(c3nn4nnnc4c4ccccc34)CC2)nc1`, the RP-LC retention time was determined as 807 s.
`CCCNC(=O)CCc1c(-c2ccc(Br)cc2)nc2ccccn12` gave an RP-LC retention time of 624 s.
In turn, `Cc1noc(-c2ccc(-n3ncc(C(=O)NC4CC4)c3C)nc2)n1` showed an RP-LC retention time of 709 s.
In the case of `CCn1c(C2CCN(C(=O)c3ccoc3)C2)nc2cccnc21` (centres undefined), the RP-LC retention time was 604 s.
As for `CCCOc1ccc(CNC(=O)C2CCc3nc(N4CCCCC4)ncc3C2)cc1` (centres undefined), the RP-LC retention time was found to be 850 s.
For the compound `CCn1nccc1-c1cccc(-c2noc(-c3ccc(OC)cc3)n2)c1`, the RP-LC retention time was 1210 s.
`Cc1cc(=O)n(CC#N)c(N2CCCCC2)n1`: the RP-LC retention time was found to be 655 s.
The result for `COc1cc(C(=O)N2CCC3(CC2)Nc2ccccc2-n2cccc23)cc(OC)c1OC` reads 902 s; that for `FC(F)Sc1ccc(-c2cn3cc(Cl)ccc3n2)cc1`, 841 s; that for `COc1cc(Nc2c(C(=O)N3CCC(C)CC3)cnc3nc(C)ccc23)cc(OC)c1`, 662 s.
Consider `O=C(Nc1c(-c2ccc(F)cc2)nc2ccccn12)c1ccc(Cl)c([N+](=O)[O-])c1`, for which the RP-LC retention time amounted to 733 s.
Compound `Cc1ccnc(N2CCCC(C(=O)NCCc3ccc(S(N)(=O)=O)cc3)C2)n1` (centres undefined) gave an RP-LC retention time of 604 s.
Compound `Cc1ccc(-c2csc(-c3cccn3CC(=O)NCC3CCCO3)n2)cc1` (centres undefined) registered an RP-LC retention time of 1020 s.
As for `CCNc1cc(C)nc(N2CCN(C(=O)CC)CC2)n1`, the RP-LC retention time was found to be 567 s.
`CC(C)n1nc(CNC(=O)c2ccccn2)c2ccccc21` registered an RP-LC retention time of 874 s.
`COc1cc(OC)c(NC(=O)NC2CCN(c3nc4ccccc4n(C)c3=O)CC2)cc1Cl`: the RP-LC retention time was 945 s.
Compound `COc1ccc(OC)c(CNC(=O)c2c(N3CCCC3=O)c3cc(OC)ccc3n2C)c1` displayed an RP-LC retention time of 849 s.
The result for `COc1cc(Cl)ccc1-c1nc(-c2cccc(-c3ccnn3C)c2)no1` reads 1190 s.
`COc1ccccc1CNc1c(-c2cc(OC)c(OC)c(OC)c2)nc2ncccn12` registered an RP-LC retention time of 714 s.
For `O=C(Nc1cc(F)ccc1F)c1c(O)c2cccnc2n(-c2cccc(F)c2)c1=O`, the RP-LC retention time was 1260 s.
`O=C(Nc1ccc(F)cc1)Nc1ccc2nncn2c1`: the RP-LC retention time turned out to be 659 s.
Compound `O=C(Nc1cc(F)cc(F)c1)c1c(O)c2cccnc2n(-c2ccc(F)cc2)c1=O` had an RP-LC retention time of 918 s.
`CN(C)S(=O)(=O)c1ccc2c(c1)cc(C(=O)NCCc1c[nH]c3ccccc13)n2C` showed an RP-LC retention time of 895 s.
The result for `Cc1ccc(CNC(=O)Cn2cccc2-c2nnc(-c3ccccc3)o2)cc1` reads 940 s; that for `Cc1cc(N2CCN(C)CC2)nc2ccc(NC(=S)N3CCN(c4ccc(Cl)cc4)CC3)cc12`, 645 s.
In turn, `CC(C)NC(=O)N1CCCC(c2cccc(C(=O)NCc3ccc(OC(C)C)cc3)c2)C1` (centres undefined) displayed an RP-LC retention time of 939 s.
Turning to `CN(C)c1ccc(C(=O)N2CCCC(COc3ccc(C(=O)NC4CC4)cc3)C2)cc1` (centres undefined), the RP-LC retention time turned out to be 780 s.
As to `COCCCNCc1c(C(=O)O)c(C)n(Cc2ccccc2Cl)c1C`, the RP-LC retention time was 688 s.
`COCCN1C(=O)c2ccccc2C(C(=O)NCCCN2CCCC(C)C2)C1c1cccs1` (centres undefined) had an RP-LC retention time of 643 s.
With `CCOc1ccc(C(=O)N2CCC3(CC2)NC(=O)c2cccc(Cl)c2N3)cc1`, the RP-LC retention time is 790 s.
For `COc1ccc(C(O)CN2CCN(C3CCCCC3)CC2)cc1` (centres undefined), the RP-LC retention time turned out to be 540 s.
In turn, `O=C(c1cccnc1)N1CCc2c([nH]c3ccccc23)C1c1ccc(Cl)cc1` (centres undefined) had an RP-LC retention time of 998 s.
On to `CSc1ccc(-c2noc(CN3C(=O)COc4cc(C)ccc43)n2)cc1`, for which the RP-LC retention time is 1130 s.
For the compound `CSc1cccc(NC(=O)C2CCN(S(=O)(=O)c3ccc(-c4noc(C5CC5)n4)cc3)CC2)c1`, the RP-LC retention time amounted to 1100 s.
In turn, `COc1ccc(NC(=O)c2[nH]c3cc(C)sc3c2CN2CCCC2)c(C)c1` gave an RP-LC retention time of 708 s.
The compound `CCc1nnc([C@@H]2CC(F)(F)CN2C(=O)c2cc(C)no2)o1` showed an RP-LC retention time of 686 s.
Turning to `CCOc1ccccc1CN1C[C@@H](CO)[C@H](c2ccccn2)C1`, the RP-LC retention time came out at 620 s.
The compound `Cc1ccccc1Oc1nccn2c(=O)n(CC(=O)Nc3c(C)cccc3C)nc12` displayed an RP-LC retention time of 838 s.
As for `Cn1cnc2ccc(-c3noc(-c4cccs4)n3)cc21`, the figure is 685 s; as for `CCc1ccc(CNC(=O)Cn2cnc3nc4c(cc3c2=O)CCCC4)cc1`, 765 s.
In the case of `O=c1n(Cc2ccccc2)nc2ccc(S(=O)(=O)N3CCCCC3)cn12`, the RP-LC retention time came to 910 s.
With `O=C(NC1CCCC1)c1ccc2c(c1)N(Cc1ccccc1)C(=O)CO2`, the RP-LC retention time is 873 s.
In the case of `Cc1ccc(-c2cc3c(=O)n(Cc4noc(CN5CCCCCCC5)n4)ccn3n2)cc1`, the RP-LC retention time worked out at 757 s.
The compound `CCCCCn1c(CN(C)C(=O)c2ccco2)nc2ccccc21` showed an RP-LC retention time of 700 s.
`CCOc1ccc2nc(Nc3ncc4c(n3)CC(c3cccs3)CC4=O)nc(C)c2c1` (centres undefined) showed an RP-LC retention time of 795 s.
`COc1cc(OC)c(NC(=O)CN2C(=O)NC(c3ccc(Cl)cc3)C3=C2COC3=O)cc1Cl` (centres undefined) gave an RP-LC retention time of 858 s.
On to `O=C(Cc1ccsc1)N1CCC2(CC1)CC(N1CCCCC1)CCO2` (centres undefined), for which the RP-LC retention time worked out at 590 s.
Turning to `CCn1cc(S(=O)(=O)N2C[C@@H](COC)[C@H](c3ccccn3)C2)cn1`, the RP-LC retention time was 625 s.
With `O=C(Nc1cccc(Br)c1)C1CCN(c2nccnc2Sc2ccccc2)CC1`, the RP-LC retention time came out at 1190 s.
`CCCC(NC(=O)c1ccccc1)C(=O)Nc1nc2ccccc2[nH]1` (centres undefined): the RP-LC retention time is 688 s.
As for `COc1cc(=O)n(-c2ccccc2C)nc1C(=O)Nc1ccc(OC(F)(F)F)cc1`, the figure is 880 s.
